# Laboratory results from US8124793B2, “Derivatives of ethylene methanedisulfonate as cancer chemotherapeutic agents” (priority 2007, dated 2012).
# Experiments:
# Format in all cases: cell-based
# HCT-15 = assay: NCI screen, growth of human tumor cells: Colon Cancer HCT-15; conditions: HCT-15 (Colon Cancer), 10^−4 molar
# In short: (§1)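 NCI screening: compound applied to tumor cell lines at a given molar concentration, growth measured as percent. Minimum 60 data points/compound; cancer type noted.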
# OVCAR-5 = assay: NCI screen, growth of human tumor cells: Ovarian Cancer OVCAR-5; conditions: OVCAR-5 (Ovarian Cancer), 10^−4 molar
# In short: as §1
# IGROVI = assay: NCI screen, growth of human tumor cells: Ovarian Cancer IGROVI; conditions: IGROVI (Ovarian Cancer), 10^−4 molar
# In short: as §1
# NCI-H460 = assay: NCI screen, growth of human tumor cells: Non-Small Cell Lung NCI-H460; conditions: NCI-H460 (Non-Small Cell Lung), 10^−4 molar
# In short: as §1
# OVCAR-3 = assay: NCI screen, growth of human tumor cells: Ovarian Cancer OVCAR-3; conditions: OVCAR-3 (Ovarian Cancer), 10^−4 molar
# In short: as §1
# human cancer cells = assay: NCI screen summary over the cancers tested (negative growth of human cancer cells); conditions: 10^−4 M conc.; cancers with negative growth / cancers tested
# Method: (§2) In the NCI screening process, each compound was tested and described by a minimum of 60 data points. The test data include, but are not limited to the type of cancer, the molar concentration used in the screen, and the percent growth of the cancer. In some cases, NMR and elemental analysis were used for structural assignment.
# The derivatives in the tables are grouped using the same category as in the tables 1-6.
# OVCAR-4 = assay: NCI screen, growth of human tumor cells: Ovarian Cancer OVCAR-4; conditions: OVCAR-4, 10^−4 molar
# In short: as §1
# SF-539 = assay: NCI screen, growth of human tumor cells: CNS Cancer SF-539; conditions: SF-539 (CNS Cancer), 10^−4 molar
# In short: as §1
# NCI-H322M = assay: NCI screen, growth of human tumor cells: Non-Small Cell Lung NCI-H322M; conditions: NCI-H322M (Non-Small Cell Lung), 10^−4 molar
# In short: as §1
# SW620 = assay: NCI screen, growth of human tumor cells: Colon Cancer SW620; conditions: SW620 (Colon Cancer), 10^−4 molar
# Method: as §2
# SK-MEL-28 = assay: NCI screen, growth of human tumor cells: Melanoma SK-MEL-28; conditions: SK-MEL-28 (Melanoma), 10^−4 molar
# In short: as §1
# RPMI-8226 = assay: NCI screen, growth of human tumor cells: Leukemia RPMI-8226; conditions: RPMI-8226 (Leukemia), 10^−4 molar
# In short: as §1
# RXF-393 = assay: NCI screen, growth of human tumor cells: Renal Cancer RXF-393; conditions: RXF-393 (Renal Cancer), 10^−4 molar
# In short: as §1
# MDA-MB-435 = assay: NCI screen, growth of human tumor cells: Breast Cancer MDA-MB-435; conditions: MDA-MB-435 (Breast Cancer), 10^−4 molar
# In short: as §1
# SF-268 = assay: NCI screen, growth of human tumor cells: CNS Cancer SF-268; conditions: SF-268 (CNS Cancer), 10^−4 molar
# In short: as §1
# NCI-H23 = assay: NCI screen, growth of human tumor cells: Non-Small Cell Lung NCI-H23; conditions: NCI-H23, 10^−4 molar
# In short: as §1
# OVCAR-8 = assay: NCI screen, growth of human tumor cells: Ovarian Cancer OVCAR-8; conditions: OVCAR-8 (Ovarian Cancer), 10^−4 molar
# Method: as §2
# LOXIMVI = assay: NCI screen, growth of human tumor cells: Melanoma LOXIMVI; conditions: LOXIMVI (Melanoma), 10^−4 molar
# In short: as §1
# UACC-257 = assay: NCI screen, growth of human tumor cells: Melanoma UACC-257; conditions: UACC-257 (Melanoma), 10^−4 molar
# In short: as §1
# SK-MEL-5 = assay: NCI screen, growth of human tumor cells: Melanoma SK-MEL-5; conditions: SK-MEL-5 (Melanoma), 10^−4 molar
# In short: as §1
# BT-549 = assay: NCI screen, growth of human tumor cells: Breast Cancer BT-549; conditions: BT-549 (Breast Cancer), 10^−4 molar
# In short: as §1
# SNB-19 = assay: NCI screen, growth of human tumor cells: CNS Cancer SNB-19; conditions: SNB-19 (CNS Cancer), 10^−4 molar
# In short: as §1
# EKVX = assay: NCI screen, growth of human tumor cells: Non-Small Cell Lung EKVX; conditions: EKVX, 10^−4 molar
# In short: as §1
# HT29 = assay: NCI screen, growth of human tumor cells: Colon Cancer HT29; conditions: HT29 (Colon Cancer), 10^−4 molar
# In short: as §1
# DU-145 = assay: NCI screen, growth of human tumor cells: Prostate Cancer DU-145; conditions: DU-145 (Prostate Cancer), 10^−4 molar
# In short: as §1
# NCI-H522 = assay: NCI screen, growth of human tumor cells: Non-Small Cell Lung NCI-H522; conditions: NCI-H522, 10^−4 molar
# In short: as §1
# HOP-62 = assay: NCI screen, growth of human tumor cells: Non-Small Cell Lung HOP-62; conditions: HOP-62 (Non-Small Cell Lung), 10^−4 molar
# In short: as §1
# MDA-N = assay: NCI screen, growth of human tumor cells: Breast Cancer MDA-N; conditions: 10^−4 molar
# Method: as §2
# U-251 = assay: NCI screen, growth of human tumor cells: CNS Cancer U-251; conditions: U-251 (CNS Cancer), 10^−4 molar
# In short: as §1
# M14 = assay: NCI screen, growth of human tumor cells: Melanoma M14; conditions: M14 (Melanoma), 10^−4 molar
# In short: as §1
# UACC-62 = assay: NCI screen, growth of human tumor cells: Melanoma UACC-62; conditions: UACC-62 (Melanoma), 10^−4 molar
# In short: as §1
# HS 578T = assay: NCI screen, growth of human tumor cells: Breast Cancer HS 578T; conditions: HS 578T (Breast Cancer), 10^−4 molar
# In short: as §1
# HCC-2998 = assay: NCI screen, growth of human tumor cells: HCC-2998 (listed under Non-Small Cell Lung); conditions: HCC-2998, 10^−4 molar
# In short: as §1
# MDA-MB-231/ATCC = assay: NCI screen, growth of human tumor cells: Breast Cancer MDA-MB-231/ATCC; conditions: MDA-MB-231/ATCC (Breast Cancer), 10^−4 molar
# Method: as §2
# MOLT-4 = assay: NCI screen, growth of human tumor cells: Leukemia MOLT-4; conditions: MOLT-4 (Leukemia), 10^−4 molar
# In short: as §1
# ACHN = assay: NCI screen, growth of human tumor cells: Renal Cancer ACHN; conditions: ACHN (Renal Cancer), 10^−4 molar
# In short: as §1
# SN12C = assay: NCI screen, growth of human tumor cells: Renal Cancer SN12C; conditions: SN12C (Renal Cancer), 10^−4 molar
# In short: as §1
# MCF 7 = assay: NCI screen, growth of human tumor cells: Breast Cancer MCF 7; conditions: MCF 7 (Breast Cancer), 10^−4 molar
# In short: as §1
# NCI-H226 = assay: NCI screen, growth of human tumor cells: Non-Small Cell Lung NCI-H226; conditions: NCI-H226 (Non-Small Cell Lung), 10^−4 molar
# In short: as §1
# 786-0 = assay: NCI screen, growth of human tumor cells: Renal Cancer 786-0; conditions: 786-0 (Renal Cancer), 10^−4 molar
# In short: as §1
# MCF7/ADR-RES = assay: NCI screen, growth of human tumor cells: Breast Cancer MCF7/ADR-RES; conditions: MCF7/ADR-RES (Breast Cancer), 10^−4 molar
# In short: as §1
# CAKI-1 = assay: NCI screen, growth of human tumor cells: Renal Cancer CAKI-1; conditions: CAKI-1 (Renal Cancer), 10^−4 molar
# In short: as §1
# HCT-116 = assay: NCI screen, growth of human tumor cells: Colon Cancer HCT-116; conditions: HCT-116 (Colon Cancer), 10^−4 molar
# In short: as §1
compound,measurement,setting,value
CCOCC1(COCC)S(=O)(=O)OCCOS1(=O)=O [NSC 698120],percent of growth of human tumor cells,HCT-15,−27%
same,percent of growth of human tumor cells,OVCAR-5,−28%
same,percent of growth of human tumor cells,IGROVI,−28%
same,percent of growth of human tumor cells,NCI-H460,−38%
same,percent of growth of human tumor cells,OVCAR-3,−13%
same,Percentage of cancers showing negative growth cancers tested,human cancer cells,10^−4 M conc. = 22/42 = 52%
same,% Growth,OVCAR-4,−88%
same,percent of growth of human tumor cells,SF-539,20%
same,percent of growth of human tumor cells,NCI-H322M,20%
same,percent of growth of human tumor cells,SW620,−3%
same,percent of growth of human tumor cells,SK-MEL-28,12%
same,percent of growth of human tumor cells,RPMI-8226,10%
same,percent of growth of human tumor cells,RXF-393,−36%
same,percent of growth of human tumor cells,MDA-MB-435,1%
same,percent of growth of human tumor cells,SF-268,21%
same,% Growth,NCI-H23,−72%
same,percent of growth of human tumor cells,OVCAR-8,−43%
same,percent of growth of human tumor cells,LOXIMVI,−25%
same,percent of growth of human tumor cells,UACC-257,−14%
same,percent of growth of human tumor cells,SK-MEL-5,25%
same,percent of growth of human tumor cells,BT-549,−4%
same,percent of growth of human tumor cells,SNB-19,14%
same,% Growth,EKVX,−99%
same,percent of growth of human tumor cells,HT29,−3%
same,percent of growth of human tumor cells,DU-145,24%
same,% Growth,NCI-H522,−83%
same,percent of growth of human tumor cells,HOP-62,23%
same,percent of growth of human tumor cells,MDA-N,3%
same,percent of growth of human tumor cells,U-251,−47%
same,percent of growth of human tumor cells,M14,−36%
same,percent of growth of human tumor cells,UACC-62,−36%
same,percent of growth of human tumor cells,HS 578T,15%
same,% Growth,HCC-2998,−92%
same,percent of growth of human tumor cells,MDA-MB-231/ATCC,18%
same,percent of growth of human tumor cells,MOLT-4,23%
same,percent of growth of human tumor cells,ACHN,18%
same,percent of growth of human tumor cells,SN12C,24%
same,percent of growth of human tumor cells,MCF 7,27%
same,percent of growth of human tumor cells,NCI-H226,0%
same,percent of growth of human tumor cells,786-0,15%
same,percent of growth of human tumor cells,MCF7/ADR-RES,−26%
same,percent of growth of human tumor cells,CAKI-1,7%
same,percent of growth of human tumor cells,HCT-116,−6%
